The record followed here is patent US20100022559A1, “BISOXIMES AS FUNGICIDES” (BAYER CROPSCIENCE AG, priority 2006, published 2010).

One data set in a line: logP determination by HPLC on a reversed-phase column (C 18), EEC Directive 79/831 Annex V.A8. Type of data set: physicochemical. The following applies: [a] acidic range, pH 2.3, 0.1% aqueous phosphoric acid and acetonitrile. As to the method: The stated logP values were determined in accordance with EEC Directive 79/831 Annex V.A8 by HPLC (high performance liquid chromatography) on a reversed-phase column (C 18). Temperature: 43° C.
On to `C/C(=N\OCCCON)c1cccc(C)n1` [XII-10], for which the logP is 0.27^[a].

Still in this data set, the particulars now being: [b] LC-MS, acidic range, pH 2.7, 0.1% aqueous formic acid and acetonitrile.
Take `C/C(=N\OCCCON)c1cccc(C)n1` [XII-10]: the logP was 0.27^[b].

Staying with this data set, now noted: [c] LC-MS, neutral range, pH 7.8, 0.001 molar aqueous ammonium bicarbonate solution and acetonitrile.
Turning to `C/C(=N\OCCCON)c1cccc(C)n1` [XII-10], the logP was 1.72^[c].

The data set is the same for the next values; noted with them: method marked [a] in Table 1.
In the case of `CC(=NOCC(C)CON=C(C)c1ccc(C)o1)c1ccc(C)o1` (mixture of isomers) [compound 585], the logP was 4.70^[a]. Still for that read-out and setting: to `Cc1cccc(C(=NOCC2(CON=C(c3cccc(C)n3)C3CC3)CC(C(C)(C)C)=NO2)C2CC2)n1` (mixture of isomers) [compound 651] belongs 3.98^[a]. Still for that read-out and setting: to `Cc1cccc(C(=NOCC2(CON=C(c3cccc(C)n3)C3CC3)CC(c3ccc(Cl)cc3)=NO2)C2CC2)n1` (stereo not shown) [compound 649] belongs 4.53^[a]; to `CC(=NOCC(C)(C)CON=C(C)c1nccn1C)c1nccn1C` [compound 576], 1.07^[a].

The data set is the same for the next values; noted with them: method marked [b] in Table 1.
In the case of `C/C(=N\OCC1(CO/N=C(\C)c2cccc(C)n2)CC(c2cccc(Cl)c2)=NO1)c1cccc(C)n1` [compound 603], the logP is 4.67^[b].

On to `Cc1cccc(C=NOCc2ccc(CON=Cc3cccc(C)n3)cc2)n1` [compound 735], for which the logP is 2.80^[b].

For `CC(C)=CC1=NOC(CO/N=C(\C)c2cccc(C)n2)(CO/N=C(\C)c2cccc(C)n2)C1` [compound 604], the logP was 3.70^[b]. On to `CC(=NOCC1(CON=C(C)c2cccc(C)n2)CC(c2ccc(Cl)cc2)=NO1)c1cccc(C)n1` (stereo not shown) [compound 601], for which the logP is 4.67^[b]. Take `CC(=NOCC1(CON=C(C)c2ccc(C)c(C)n2)CC(c2ccccc2)=NO1)c1ccc(C)c(C)n1` (stereo not shown) [compound 632]: the logP is 3.61^[b]. As for `CC(=NOCC(CON=C(C)c1ccc(C)c(C)n1)Cc1ccccc1)c1ccc(C)c(C)n1` (stereo not shown) [Compound 581], the logP is 5.01^[b].

With `N/C(=N\OCc1cccc(CO/N=C(\N)c2ncc(F)cc2F)c1)c1ncc(F)cc1F` [compound 714], the logP was 2.96^[b].

`CC(=NOCC(C)CON=C(C)c1ccc2ccc(C)cc2n1)c1ccc2ccc(C)cc2n1` (stereo not shown) [compound 748]: the logP was 7.36^[b].

Consider `CCCC(=NOCC1(CON=C(CCC)c2cccc(C)n2)CC(CC)=NO1)c1cccc(C)n1` (stereo not shown) [compound 617], for which the logP is 5.08^[b]. Take `CC1=NOC(CO/N=C(\C)c2cc(C)cc(C)n2)(CO/N=C(\C)c2cc(C)cc(C)n2)C1` [Compound 637]: the logP was 1.60^[b].

Turning to `Cc1cccc(C(=NOCC(C)CON=C(c2cccc(C)n2)c2cccs2)c2cccs2)n1` (stereo not shown) [compound 673], the logP was 4.49^[b].

Consider `CCCC(=NOCC1(CON=C(CCC)c2cccc(C)n2)CC(C(C)C)=NO1)c1cccc(C)n1` (stereo not shown) [compound 616], for which the logP was 5.71^[b]. Still for that read-out and setting: to `C(=NOCCCON=Cc1ccccn1)c1ccccn1` [compound 666] belongs 1.97^[b]; to `CCCC(CON=C(C)c1cc(C)cc(C)n1)CON=C(C)c1cc(C)cc(C)n1` (stereo not shown) [Compound 555], 3.22^[b].

Still in this data set, the particulars now being: method marked [c] in Table 1.
As to `CC(=NOCC(CON=C(C)c1ccc(C)c(C)n1)Cc1ccccc1)c1ccc(C)c(C)n1` (stereo not shown) [Compound 581], the logP was 7.05^[c]. With `CC(=NOCC(C)CON=C(C)c1ccc2ccc(C)cc2n1)c1ccc2ccc(C)cc2n1` (stereo not shown) [compound 748], the logP is 7.36^[c].

On to `CC(=NOCC1(CON=C(C)c2nc(C)ccc2C)CCC1)c1nc(C)ccc1C` (single isomer, unassigned) [compound 760], for which the logP is 4.72^[c]. Take `CCCC(CON=C(C)c1cc(C)cc(C)n1)CON=C(C)c1cc(C)cc(C)n1` (stereo not shown) [Compound 555]: the logP is 7.15^[c].

The data set is the same for the next values; noted with them: method marker [a] (footnote not shown); isomer A / isomer B / isomer mixture as noted in the cell.
For the compound `CC(=NOCC(=O)ON=C(C)c1cccc(C)n1)c1cccc(C)n1` [compound 158], the logP was 2.50^[a]. Still for that read-out and setting: to `C=C(CON=C(CCC)c1cccc(C)n1)CON=C(CCC)c1cccc(C)n1` (mixture of isomers) [Compound 240] belongs 6.27^[a]. For the compound `CC(=NOCCCON=C(C)c1ccc(C)c(C)n1)c1ccc(C)c(C)n1` [Compound 72], the logP was 2.23^[a]. Consider `CCC(=NOCC(C)CON=C(CC)c1ncccc1C)c1ncccc1C` (single isomer, unassigned) [compound 101], for which the logP is 4.23^[a] (isomer B).

Staying with this data set, now noted: method marker [b]; isomer A / isomer B / isomer mixture as noted in the cell.
Take `C=C(CON=C(C)c1cccc(C)n1)CON=C(C)c1ncc(C(F)(F)F)cc1Cl` (single isomer, unassigned) [compound 157]: the logP is 4.42^[b] (isomer A). Consider `C=C(CON=C(N)c1cc(C)cc(C)c1)CON=C(C)c1cccc(C)n1` [compound 185], for which the logP was 3.17^[b]. As for `CC(=NOCON=C(C)c1nc(C)c(C)s1)c1nc(C)c(C)s1` [compound 126], the logP was 4.46^[b]. Consider `CC(=NOCC(=O)ON=C(C)c1cccc(C)n1)c1cccc(C)n1` [compound 158], for which the logP is 2.57^b].

Turning to `C=C(CON=C(C)c1cccc(C)n1)CON=C(C)c1ccc(Cl)s1` (single isomer, unassigned) [compound 195], the logP is 4.82^[b] (isomer A). For the compound `C=C(CON=C(C)c1cccc(C)n1)CON=C(N)c1ncc(F)cc1F` [compound 242], the logP was 2.48^[b). Regarding `C=C(CON=C(C)c1cccc(C)n1)CON=C(N)c1cccc(C)n1` [Compound 23], the logP is 2.75^[b].

As to `CC(=NOCCCCON=C(C)c1ccccn1)c1ccccn1` [compound 124], the logP was 3.00^[b]. With `CC(=NOCCCCON=C(C)c1nc(C)c(C)s1)c1nc(C)c(C)s1` [compound 125], the logP is 5.59^[b]. On to `C=C(CON=C(C)c1cccc(C)n1)CON=C(N)c1ccc(C)n1C` [compound 199], for which the logP is 2.23^[b]. In the case of `C=C(CON=C(C)c1cccc(C)n1)CON=C(N)c1cc(C(F)(F)F)cc(C)n1` [compound 210], the logP was 4.37^[b]. `C=C(CON=C(C)c1cccc(C)n1)CON=C(C)c1cccc(OC)n1` [compound 207]: the logP is 4.82^[b].

Staying with this data set, now noted: value marked [a].
With `CC(=NOCC(C)(C)CON=C(C)c1ccc(C)c(C)n1)c1ccc(C)c(C)n1` [Compound 278], the logP was 3.81^[a]. Still for that read-out and setting: the result for `CCC(=NOCC(C)(C)CON=C(CC)c1ccc(C)c(C)n1)c1ccc(C)c(C)n1` [Compound 280] reads 5.58^[a]; that for `C=C(CON=C(SCCC)c1cccc(C)n1)CON=C(SCCC)c1cccc(C)n1` [compound 819], 4.9^[a]; that for `CCC(=NOCC(C)(C)CON=C(CC)c1cccc(C)n1)c1cccc(C)n1` [Compound 277], 6.11^[a].

The same data set, now with this note: value marked [b].
`C=C(CON=C(C)c1nc(C)ccc1C)CON=C(C)c1nc(C)ccc1C` (single isomer, unassigned) [compound 308]: the logP was 1.84^[b]. On to `CC(=NOCC1(CON=C(C)c2cccc(NCC3CC3)n2)CC1)c1cccc(NCC2CC2)n1` [compound 849], for which the logP is 1.93^[b]. For `CC(=NOC/C=C/CON=C(C)c1ccccn1)c1ccccn1` [compound 781], the logP was 2.84^[b]. On to `CC(=NOCCCCCCON=C(C)c1nccc(C)n1)c1cccc(C)n1` [Compound 509], for which the logP is 3.39^[b].

Regarding `CC(=NOCC1(CON=C(C)c2nc(C)ccc2C)COC(=O)N1)c1nc(C)ccc1C` (stereo not shown) [compound 859], the logP was 1.70^[b].

As for `CC(=NOCC(C)CON=C(C)c1cnnc(C)n1)c1cccc(C)n1` (stereo not shown) [compound 426], the logP is 3.24^[b]. On to `CC(=NOCC(C)CON=C(C)c1nc(C)c(C)c(C)n1)c1nc(C)c(C)c(C)n1` (stereo not shown) [Compound 266], for which the logP was 3.41^[b].

Turning to `CC(=NOCCCCON=C(C)c1cc(C)cc(C)n1)c1cccc(C)n1` [compound 447], the logP was 2.41^[b].

As for `CC(=NOCCCCON=C(c1cccc(C)n1)C(C)C)c1cccc(C)n1` [compound 334], the logP is 4.72^[b] (isomer B). The same measure, in the same setting: the result for `C=C(CON=C(C)c1cccc(C)n1)CON=C(c1ccccc1)c1cccc(C)n1` [compound 357] reads 3.65^[b]; that for `CC(=NOCC(C)(C)CON=C(CC(C)C)c1ncccc1C)c1cccc(C)n1` [compound 366], 5.97^[b]; that for `C=C(CON=C(CC)c1nc(C)c(C)c(C)n1)CON=C(CC)c1nc(C)c(C)c(C)n1` [compound 516], 4.07^[b]. For the compound `CC(=NOCCCCON=C(c1cccc(C)n1)C(C)C)c1cccc(C)n1` (single isomer, unassigned) [compound 525], the logP is 3.65^[b] (isomer A). `CC(=NOCC(CON=C(C)c1cccc(C)n1)C(C)(C)C)c1cccc(C)n1` (stereo not shown) [Compound 269]: the logP was 5.51^[b].

In the case of `COCc1cc(C)nc(C(C)=NOCC(C)CON=C(C)c2cc(COC)cc(C)n2)c1` (stereo not shown) [Compound 871], the logP was 4.06^[b]. Same read-out and setting: the result for `CC(=NOCC(C)CON=C(C)c1nccc(C)n1)c1cccc(C)n1` (stereo not shown) [compound 506] reads 2.59^[b]; that for `C=C(CON=C(C)c1cccc(C)n1)CON=C(C)c1cccc2ccccc12` [compound 406], 5.02^[b]; that for `CC(=NOCC(C)CON=C(C)c1ccc(Cl)s1)c1cccc(C)n1` (stereo not shown) [compound 498], 5.36^[b]. As to `CC(=NOC/C=C/CON=C(C)c1nc(C)c(C)s1)c1nc(C)c(C)s1` (single isomer, unassigned) [compound 767], the logP was 4.92^[b] (isomer B). Take `CC(=NOCC1(CON=C(C)c2nc(C)ccc2C)CCC1)c1nc(C)ccc1C` (single isomer, unassigned) [compound 760]: the logP is 2.72^[b]. As for `CCC(=NOCCCCCCON=C(C)c1cccc(C)n1)c1cccc(C)n1` [Compound 346], the logP was 5.59^[b]. For the compound `CC(=NOCCCCCCON=C(c1cccc(C)n1)C(C)C)c1cccc(C)n1` (single isomer, unassigned) [compound 527], the logP was 6.03^[b](isomer B). On to `COCc1cccc(C(C)=NOCC(C)CON=C(C)c2cccc(COC)n2)n1` (stereo not shown) [Compound 290], for which the logP was 4.92^[b]. As for `C=C(CON=C(C)c1cccc(C)n1)CON=C(C)c1cc(C)cc(C)n1` [Compound 474], the logP was 2.55^[b]. Same read-out and setting: to `CC(=NOCCCCON=C(C)c1cccc(C)n1)c1ccccn1` [Compound 376] belongs 3.11^[b].

The same data set, now with this note: value marked [c].
As for `C=C(CON=C(C)c1nc(C)ccc1C)CON=C(C)c1nc(C)ccc1C` (single isomer, unassigned) [compound 308], the logP is 2.94^[c].

Turning to `CC(=NOCC1(CON=C(C)c2nc(C)ccc2C)COC(=O)N1)c1nc(C)ccc1C` (stereo not shown) [compound 859], the logP is 2.81^[c].

For the compound `COCc1cc(C)nc(C(C)=NOCC(C)CON=C(C)c2cc(COC)cc(C)n2)c1` (stereo not shown) [Compound 871], the logP was 5.57^[c].
